Test results reported in PubChem BioAssay (NCI).
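Method: 48-hour compound exposure of cells in 96-well plates, five concentrations, linear interpolation of endpoints. GI50 is the concentration that inhibits growth by half. The concentration for full growth arrest is given as TGI.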

Experiments:
Assay in all cases: inhibition of tumour cell growth, NCI panel, 48 h
HOP-62 NSCLC = system: HOP-62 NSCLC
NCI-H522 lung = system: NCI-H522 lung
M14 melanoma = system: M14 melanoma
SNB-75 CNS = system: SNB-75 CNS
DU-145 prostate = system: DU-145 prostate

COCN(CCC1=CCCCC1)C(=O)OC
TGI (HOP-62 NSCLC): > 100 µM
TGI (NCI-H522 lung): > 100 µM
TGI (M14 melanoma): > 100 µM
TGI (SNB-75 CNS): > 100 µM
TGI (DU-145 prostate): > 100 µM

COc1cc(C(=O)N(Cc2cccnc2)C(=S)N(Cc2cccnc2)C(=O)c2cc(OC)c(OC)c(OC)c2)cc(OC)c1OC
TGI (HOP-62 NSCLC): > 100 µM
TGI (NCI-H522 lung): 97.5 µM
TGI (M14 melanoma): > 100 µM
TGI (SNB-75 CNS): 56.7 µM
TGI (DU-145 prostate): > 100 µM

COC[C@@H](C[C@H]1O[C@@](O)([C@H](O)[C@@H]2C[C@H](OC)[C@@H](O)CC/C=C(C)/C=C/[C@@H](O[C@@H]3O[C@@H](C)[C@H](OC)[C@@H](O)[C@@H]3O)[C@H](C)/C=C(C)/C=C(C)/C=C(\C)C(=O)O2)[C@H](C)[C@@H](O)[C@H]1C)O[C@H]1C[C@](C)(O)[C@@H](O[C@H]2C[C@@H](OC)[C@H](O)[C@@H](C)O2)C(C)O1 (stereo not given in full)
TGI (HOP-62 NSCLC): > 100 µM
TGI (M14 melanoma): > 100 µM
TGI (DU-145 prostate): > 100 µM

Cc1ccc([N+](=O)[O-])cc1S(=O)(=O)Nc1ccc(C2=NNC(c3ccccc3)C2)cc1 (stereo not given)
TGI (HOP-62 NSCLC): 27.2 µM
TGI (NCI-H522 lung): 57 µM
TGI (M14 melanoma): 52.3 µM
TGI (SNB-75 CNS): > 100 µM
TGI (DU-145 prostate): 92 µM

O=C(NI1OC(=O)c2ccccc21)c1ccc(Cl)cc1
TGI (HOP-62 NSCLC): > 100 µM
TGI (NCI-H522 lung): 35.2 µM
TGI (M14 melanoma): > 100 µM
TGI (SNB-75 CNS): > 100 µM
TGI (DU-145 prostate): > 100 µM

O=c1[nH]nc(-c2ccccc2)c2[nH]c3c4ccccc4ccc3c12
TGI (HOP-62 NSCLC): > 100 µM
TGI (NCI-H522 lung): > 100 µM
TGI (M14 melanoma): > 100 µM
TGI (SNB-75 CNS): > 100 µM

Cc1cc(S(=O)(=O)N=C2N(Cc3ccccc3)CCN2Cc2ccccc2)c(S)cc1Cl
TGI (HOP-62 NSCLC): > 100 µM
TGI (NCI-H522 lung): > 100 µM
TGI (M14 melanoma): > 100 µM
TGI (SNB-75 CNS): > 100 µM
TGI (DU-145 prostate): > 100 µM

C=CC(CCc1ccc(C(=O)OCC)cc1)c1c(N)nc(N)[nH]c1=O (stereo not given)
TGI (HOP-62 NSCLC): > 100 µM
TGI (M14 melanoma): > 100 µM
TGI (SNB-75 CNS): > 100 µM
TGI (DU-145 prostate): > 100 µM

COC1=C(OC)C(=O)C(Cc2c(C)nc3sc(C)cn23)=C(C)C1=O
TGI (HOP-62 NSCLC): 35.7 µM
TGI (NCI-H522 lung): 70.6 µM
TGI (M14 melanoma): 32.8 µM
TGI (DU-145 prostate): 48 µM

O=Cc1ccc2c(c1)CC1(Cc3ccccc3C1)C2
TGI (HOP-62 NSCLC): 34.2 µM
TGI (NCI-H522 lung): > 100 µM
TGI (M14 melanoma): 26.8 µM

O=Cc1ccc(OCc2cccc(COc3ccc(/C=N\Nc4ccc([N+](=O)[O-])cc4[N+](=O)[O-])cc3)n2)cc1
TGI (HOP-62 NSCLC): > 100 µM
TGI (NCI-H522 lung): > 100 µM
TGI (M14 melanoma): > 100 µM
TGI (DU-145 prostate): > 100 µM

CCOP(C)(=O)C(N)Cc1ccc(OC)c(OC)c1 (stereo not given)
TGI (HOP-62 NSCLC): > 100 µM
TGI (NCI-H522 lung): > 100 µM
TGI (M14 melanoma): > 100 µM
TGI (SNB-75 CNS): > 100 µM
TGI (DU-145 prostate): > 100 µM

CON(C)C(=O)CNC(=O)OCC1c2ccccc2-c2ccccc21
TGI (HOP-62 NSCLC): > 100 µM
TGI (NCI-H522 lung): > 100 µM
TGI (M14 melanoma): > 100 µM
TGI (SNB-75 CNS): > 100 µM
TGI (DU-145 prostate): > 100 µM

CCN(CC)C(=O)Cn1c(C)cc2ccccc21
TGI (HOP-62 NSCLC): > 100 µM
TGI (NCI-H522 lung): > 100 µM
TGI (M14 melanoma): > 100 µM
TGI (SNB-75 CNS): > 100 µM
TGI (DU-145 prostate): > 100 µM

CSc1ncnc2c1ncn2C1CC(Oc2ccc(C)cc2)C(COc2ccc(C)cc2)O1 (stereo not given)
TGI (HOP-62 NSCLC): > 100 µM
TGI (NCI-H522 lung): > 100 µM
TGI (M14 melanoma): > 100 µM
TGI (SNB-75 CNS): > 100 µM
TGI (DU-145 prostate): > 100 µM

O=C1C(CN2CCCCC2)CCC1CN1CCCCC1 (stereo not given)
TGI (HOP-62 NSCLC): > 100 µM
TGI (NCI-H522 lung): 11.1 µM
TGI (M14 melanoma): 32 µM
TGI (SNB-75 CNS): > 75.6 µM
TGI (DU-145 prostate): > 100 µM

NC(Cc1ccccc1)C(=O)N[C@H]1c2ccsc2/C(=N/O)[C@H]1O (stereo not given in full)
TGI (HOP-62 NSCLC): > 100 µM
TGI (M14 melanoma): > 100 µM
TGI (DU-145 prostate): > 100 µM

CNc1ccc(C(=O)CC(O)CCC(C)C2OC(=O)CC(O)CC(=O)CC(O)CC(O)CC(O)CC(O)CC3(O)CC(O)C(C(=O)OC)C(CC(O[C@@H]4O[C@H](C)[C@@H](O)[C@H](N)[C@@H]4O)/C=C/C=C/C=C/C=C/C=C/C=C/C=C/C2C)O3)cc1 (stereo not given in full)
GI50 (HOP-62 NSCLC): 2.27 µM
TGI (HOP-62 NSCLC): 5.03 µM
GI50 (NCI-H522 lung): 2.48 µM
TGI (NCI-H522 lung): 6.03 µM
GI50 (M14 melanoma): 2.26 µM
TGI (M14 melanoma): 7.32 µM
GI50 (SNB-75 CNS): 2.83 µM
TGI (SNB-75 CNS): 30.8 µM
GI50 (DU-145 prostate): 1.85 µM
TGI (DU-145 prostate): 3.55 µM

O=C1/C(=C/c2ccc([N+](=O)[O-])cc2)C(=O)N(c2ccccc2)C1c1ccccc1 (stereo not given)
TGI (HOP-62 NSCLC): > 10 µM
TGI (NCI-H522 lung): > 10 µM
TGI (M14 melanoma): > 10 µM
TGI (SNB-75 CNS): > 10 µM
TGI (DU-145 prostate): > 10 µM

Cc1ccc(SCC(CF)OC(C)n2cnc3c(=O)[nH]c(N)nc32)cc1 (stereo not given)
TGI (HOP-62 NSCLC): > 100 µM
TGI (NCI-H522 lung): > 100 µM
TGI (M14 melanoma): > 100 µM
TGI (SNB-75 CNS): > 100 µM
TGI (DU-145 prostate): > 100 µM

COc1cc(CNCc2cc(OC)c(OC)c(OC)c2)cc(OC)c1OC
TGI (HOP-62 NSCLC): > 10 µM
TGI (NCI-H522 lung): > 6.46 µM
TGI (M14 melanoma): > 10 µM
TGI (SNB-75 CNS): > 10 µM
TGI (DU-145 prostate): > 10 µM

Nc1nc(N)c2ncn(-c3ccc(Cl)cc3)c2n1
TGI (HOP-62 NSCLC): > 100 µM
TGI (NCI-H522 lung): > 100 µM
TGI (M14 melanoma): > 100 µM
TGI (SNB-75 CNS): 59.1 µM
TGI (DU-145 prostate): > 100 µM

CCOC(=O)C(=Cc1[nH]c2ccccc2c1-c1c[nH]c2ccccc12)C(=O)OCC
TGI (HOP-62 NSCLC): 28.1 µM
TGI (NCI-H522 lung): > 100 µM
TGI (M14 melanoma): 21.7 µM
TGI (SNB-75 CNS): 26.4 µM
TGI (DU-145 prostate): 27.1 µM

COC(CNC(=O)C(C)NC(=O)CCc1ccccc1)OC (stereo not given)
TGI (NCI-H522 lung): > 100 µM
TGI (M14 melanoma): > 100 µM
TGI (SNB-75 CNS): > 100 µM
TGI (DU-145 prostate): > 100 µM

CCOC(=O)c1cc(C(O)P2(=O)N(CC(C)(C)C)[C@@H]3CCCC[C@H]3N2CC(C)(C)C)cn1C(=O)OC(C)(C)C (stereo not given in full)
TGI (HOP-62 NSCLC): 28.1 µM
TGI (NCI-H522 lung): 31.1 µM
TGI (M14 melanoma): 29.7 µM
TGI (DU-145 prostate): 36.2 µM

Cc1c(S(=O)(=O)/N=C(\NO)Nc2ccc(Cl)c(Cl)c2)sc2ccc(Cl)cc12
TGI (HOP-62 NSCLC): 42.3 µM
TGI (NCI-H522 lung): 41.3 µM
TGI (M14 melanoma): 44.1 µM
TGI (DU-145 prostate): 37.1 µM

CC(C)=CCC/C(C)=C/C=C/C(C)=C/C=C/C(C)=C/C=C/C=C(C)/C=C/C=C(C)/C=C/[C@H]1C(C(C)(C)O)CC[C@]1(C)O (stereo not given in full)
TGI (HOP-62 NSCLC): 40.8 µM
TGI (NCI-H522 lung): 36.8 µM
TGI (M14 melanoma): 91.1 µM
TGI (DU-145 prostate): 49.9 µM

COc1cccc(-c2ccc3c4c2O[C@H]2C(=O)CC[C@@]5(O)[C@@H](C3)N(CC3CC3)CC[C@]425)c1
TGI (HOP-62 NSCLC): 35.4 µM
TGI (NCI-H522 lung): 32.9 µM
TGI (M14 melanoma): 28.1 µM
TGI (DU-145 prostate): 63.4 µM

O=C1CC(=Nc2ccc(Cl)cc2)C(c2ccccc2)N1c1ccccc1 (stereo not given)
TGI (HOP-62 NSCLC): > 100 µM
TGI (NCI-H522 lung): 7.22 µM
TGI (M14 melanoma): 33.8 µM
TGI (DU-145 prostate): 53 µM

COc1cc(Cn2c3c(c4cc(O)ccc42)Cc2ccccc2C3=O)cc(OC)c1
TGI (HOP-62 NSCLC): > 100 µM
TGI (M14 melanoma): > 100 µM
TGI (SNB-75 CNS): 58.5 µM
TGI (DU-145 prostate): > 100 µM

COc1cc(/C=C2/C[C@H]3[C@@H]4CC=C5C[C@@H](O)CC[C@]5(C)[C@H]4CC[C@]3(C)NC2=O)cc(OC)c1OC
TGI (HOP-62 NSCLC): > 89.1 µM
TGI (NCI-H522 lung): 21.7 µM
TGI (M14 melanoma): > 100 µM
TGI (DU-145 prostate): 23.4 µM

Cc1ccc(-c2c(C#N)c(-c3ccc(Cl)cc3)c(C#N)c(=O)n2NS(=O)(=O)c2ccc(C)cc2)cc1
TGI (HOP-62 NSCLC): > 100 µM
TGI (NCI-H522 lung): 71.9 µM
TGI (M14 melanoma): 60.2 µM
TGI (SNB-75 CNS): > 100 µM

COc1ccc(C(=C(Cl)c2ccccc2)c2ccc(OC)cc2)cc1
TGI (HOP-62 NSCLC): > 100 µM
TGI (NCI-H522 lung): > 100 µM
TGI (M14 melanoma): > 100 µM
TGI (DU-145 prostate): > 100 µM
